{"source": "paper PMC5507466", "about": "“The ubiquitin-conjugating enzyme CDC34 is essential for cytokinesis in contrast to putative subunits of a SCF complex in Trypanosoma brucei” (PLoS Neglected Tropical Diseases, 2017)", "target": "T1, TbCDC34 (Trypanosoma brucei, UniProt Q382B7)", "T1 construct": "gene Tb11.01.5790; N-terminal 6His-tagged, expressed in E. coli BL21(DE3)+pLysE, Ni-NTA purified; catalytic Cys84, Ser86", "T1 sequence (Q382B7 1-247)": "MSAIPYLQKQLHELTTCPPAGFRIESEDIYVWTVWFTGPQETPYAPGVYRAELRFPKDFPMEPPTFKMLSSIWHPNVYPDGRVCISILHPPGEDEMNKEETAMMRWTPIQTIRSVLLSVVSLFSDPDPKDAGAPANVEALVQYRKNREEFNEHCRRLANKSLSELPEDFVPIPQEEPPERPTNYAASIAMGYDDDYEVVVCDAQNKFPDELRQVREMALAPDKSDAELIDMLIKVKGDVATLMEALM", "test": "in vitro gel-based ubiquitination assay (anti-ubiquitin and anti-His western blot)", "assay_type": "biochemical", "settings": "300 μM CC0651 vs DMSO; 10 μM E2, 100 nM human E1, 5 μM human ubiquitin; ATP; 37 °C, 0-4 h"}
{"smiles": "COCC(=O)N[C@@H](Cc1ccc(-c2cc(Cl)cc(Cl)c2)cc1)[C@H](O)[C@@H](O)C(=O)O", "note": "[CC0651]", "values": [{"measurement": "in vitro gel-based ubiquitination assay (anti-ubiquitin and anti-His western blo)", "value": "addition of CC0651 to the reaction had modest, but detectable effect on TbCDC34 activity"}]}
